Drawing on PubChem BioAssay (NCI), this text covers TGI for 16 molecules.

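Each compound was tested at five concentrations against cells in 96-well plates for 48 hours. TGI is the concentration that stops growth completely.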

In one experiment the test system is SK-MEL-2 melanoma. The experiment is described as follows: NCI anticancer screen, dose series, 48 h.
Molecule `CC(CCC#N)(CCC#N)C(=O)CC(O)(C(F)(F)F)C(F)(F)F` came in with a TGI of 89.2 µM.
With `CC(C)(C)[Si](C)(C)OC1/C(=C/C#N)C(n2ccc(=O)[nH]c2=O)OC1CO` (centres undefined), the TGI was more than 100 µM.
For the molecule `COc1ccc(-c2c(C#N)c(O)n(NS(=O)(=O)c3ccc(C)cc3)c(=O)c2C#N)cc1`, the TGI was more than 100 µM.
The same measure, in the same setting: then `CC12CC(C#N)(C#N)C(C#N)(CO1)C(=N)O2` (centres undefined), with more than 100 µM; and `COc1ccc(OC)c(N2C(=O)CSC2c2cc(OC)c(OC)c(OC)c2)c1` (centres undefined), with more than 100 µM; and `COc1ccc(CCN=C2OCc3ccccc32)cc1OC`, with more than 100 µM.
On the same count and under the same terms, then `Cc1ccc(NC(=S)NNC(=O)c2cc(-c3ccccc3)nc3ccccc23)cc1`, with 24 µM; and `COc1ccc(-c2nc(SCC(=O)N/N=C/c3ccc(O)c(OC)c3)[nH]c2-c2ccc(OC)cc2)cc1`, with 33.5 µM; and `Cc1cn(CCCCCOC(=O)NC(CCCN=C(N)N)C(=O)O)c(=O)[nH]c1=O` (centres undefined), with more than 100 µM.
Consider `COc1ccc(C(=O)/C=C/c2ccncc2)cc1OC`, for which the TGI came out at 30.8 µM.
Still for that read-out and setting: then `CC(C)(C)C(=O)OC(N)/C=C/c1ccccc1` (centres undefined), with more than 100 µM; and `O=C(CCc1cc(O)cc(O)c1)NCCc1cc(O)cc(O)c1`, with more than 100 µM; and `CC1(C)OC(=C(C#N)C#N)C(C#N)=C1/C=C/c1ccncc1`, with 6.44 µM.
`C[C@@H]1CCC2[C@@H](C)[C@@H](OCCO[C@H]3OC4O[C@@]5(C)CCC6[C@H](C)CCC([C@H]3C)[C@@]46OO5)OC3O[C@@]4(C)CCC1[C@]32OO4` (some centres undefined) displayed a TGI of 6.06 µM.

A further experiment deals with HOP-92 NSCLC. Nature of the experiment: NCI anticancer screen, dose series, 48 h.
In turn, `CC(CCC#N)(CCC#N)C(=O)CC(O)(C(F)(F)F)C(F)(F)F` gave a TGI of 15.6 µM.
The same measure, in the same setting: to `CC(C)(C)[Si](C)(C)OC1/C(=C/C#N)C(n2ccc(=O)[nH]c2=O)OC1CO` (centres undefined) belongs more than 100 µM; to `COc1ccc(-c2c(C#N)c(O)n(NS(=O)(=O)c3ccc(C)cc3)c(=O)c2C#N)cc1`, more than 100 µM; to `CC12CC(C#N)(C#N)C(C#N)(CO1)C(=N)O2` (centres undefined), more than 100 µM.
Turning to `COc1ccc(OC)c(N2C(=O)CSC2c2cc(OC)c(OC)c(OC)c2)c1` (centres undefined), the TGI is more than 100 µM.
In the case of `COc1ccc(CCN=C2OCc3ccccc32)cc1OC`, the TGI is more than 100 µM.
Still for that read-out and setting: then `Cc1ccc(NC(=S)NNC(=O)c2cc(-c3ccccc3)nc3ccccc23)cc1`, with 25.8 µM; and `O=C(O)c1cccnc1`, with more than 100 µM; and `COc1ccc(-c2nc(SCC(=O)N/N=C/c3ccc(O)c(OC)c3)[nH]c2-c2ccc(OC)cc2)cc1`, with 66.1 µM.
On the same count and under the same terms, to `Cc1cn(CCCCCOC(=O)NC(CCCN=C(N)N)C(=O)O)c(=O)[nH]c1=O` (centres undefined) belongs more than 100 µM.
The molecule `COc1ccc(C(=O)/C=C/c2ccncc2)cc1OC` showed a TGI of 27.6 µM.
Still for that read-out and setting: then `CC(C)(C)NC(=O)N1N=C(c2ccccc2)C1c1ccccc1` (centres undefined), with 65 µM; and `CC(C)(C)C(=O)OC(N)/C=C/c1ccccc1` (centres undefined), with more than 100 µM; and `O=C(CCc1cc(O)cc(O)c1)NCCc1cc(O)cc(O)c1`, with more than 100 µM.
The molecule `CC1(C)OC(=C(C#N)C#N)C(C#N)=C1/C=C/c1ccncc1` returned a TGI of 5.17 µM.
On the same count and under the same terms, to `C[C@@H]1CCC2[C@@H](C)[C@@H](OCCO[C@H]3OC4O[C@@]5(C)CCC6[C@H](C)CCC([C@H]3C)[C@@]46OO5)OC3O[C@@]4(C)CCC1[C@]32OO4` (some centres undefined) belongs more than 57.7 µM.

In another experiment the test system is MDA-MB-231 breast. The experiment is described as follows: NCI anticancer screen, dose series, 48 h.
For `CC(CCC#N)(CCC#N)C(=O)CC(O)(C(F)(F)F)C(F)(F)F`, the TGI turned out to be 14.2 µM.
On the same count and under the same terms, to `CC(C)(C)[Si](C)(C)OC1/C(=C/C#N)C(n2ccc(=O)[nH]c2=O)OC1CO` (centres undefined) belongs more than 100 µM; to `COc1ccc(-c2c(C#N)c(O)n(NS(=O)(=O)c3ccc(C)cc3)c(=O)c2C#N)cc1`, more than 100 µM.
The same measure, in the same setting: to `CC12CC(C#N)(C#N)C(C#N)(CO1)C(=N)O2` (centres undefined) belongs more than 100 µM; to `COc1ccc(OC)c(N2C(=O)CSC2c2cc(OC)c(OC)c(OC)c2)c1` (centres undefined), more than 100 µM.
Same read-out and setting: to `COc1ccc(CCN=C2OCc3ccccc32)cc1OC` belongs more than 100 µM; to `Cc1ccc(NC(=S)NNC(=O)c2cc(-c3ccccc3)nc3ccccc23)cc1`, 36.3 µM; to `O=C(O)c1cccnc1`, more than 100 µM.
In turn, `COc1ccc(-c2nc(SCC(=O)N/N=C/c3ccc(O)c(OC)c3)[nH]c2-c2ccc(OC)cc2)cc1` yielded a TGI of 84.5 µM.
Regarding `Cc1cn(CCCCCOC(=O)NC(CCCN=C(N)N)C(=O)O)c(=O)[nH]c1=O` (centres undefined), the TGI was more than 100 µM.
The molecule `COc1ccc(C(=O)/C=C/c2ccncc2)cc1OC` had a TGI of 24.3 µM.
In the case of `CC(C)(C)NC(=O)N1N=C(c2ccccc2)C1c1ccccc1` (centres undefined), the TGI was more than 100 µM.
The same measure, in the same setting: then `CC(C)(C)C(=O)OC(N)/C=C/c1ccccc1` (centres undefined), with more than 100 µM.
On the same count and under the same terms, to `O=C(CCc1cc(O)cc(O)c1)NCCc1cc(O)cc(O)c1` belongs more than 100 µM; to `CC1(C)OC(=C(C#N)C#N)C(C#N)=C1/C=C/c1ccncc1`, 4.36 µM.
Still for that read-out and setting: then `C[C@@H]1CCC2[C@@H](C)[C@@H](OCCO[C@H]3OC4O[C@@]5(C)CCC6[C@H](C)CCC([C@H]3C)[C@@]46OO5)OC3O[C@@]4(C)CCC1[C@]32OO4` (some centres undefined), with more than 66.2 µM.

Another experiment relates to PC-3 prostate. Nature of the experiment: NCI anticancer screen, dose series, 48 h.
The molecule `CC(CCC#N)(CCC#N)C(=O)CC(O)(C(F)(F)F)C(F)(F)F` displayed a TGI of 28.4 µM.
Same read-out and setting: then `CC(C)(C)[Si](C)(C)OC1/C(=C/C#N)C(n2ccc(=O)[nH]c2=O)OC1CO` (centres undefined), with more than 100 µM; and `COc1ccc(-c2c(C#N)c(O)n(NS(=O)(=O)c3ccc(C)cc3)c(=O)c2C#N)cc1`, with more than 100 µM.
`CC12CC(C#N)(C#N)C(C#N)(CO1)C(=N)O2` (centres undefined) registered a TGI of more than 100 µM.
On the same count and under the same terms, to `COc1ccc(OC)c(N2C(=O)CSC2c2cc(OC)c(OC)c(OC)c2)c1` (centres undefined) belongs more than 100 µM; to `COc1ccc(CCN=C2OCc3ccccc32)cc1OC`, more than 100 µM; to `Cc1ccc(NC(=S)NNC(=O)c2cc(-c3ccccc3)nc3ccccc23)cc1`, 32.2 µM.
Same read-out and setting: to `O=C(O)c1cccnc1` belongs more than 100 µM.
`COc1ccc(-c2nc(SCC(=O)N/N=C/c3ccc(O)c(OC)c3)[nH]c2-c2ccc(OC)cc2)cc1` registered a TGI of more than 100 µM.
In turn, `Cc1cn(CCCCCOC(=O)NC(CCCN=C(N)N)C(=O)O)c(=O)[nH]c1=O` (centres undefined) came in with a TGI of more than 100 µM.
Still for that read-out and setting: then `COc1ccc(C(=O)/C=C/c2ccncc2)cc1OC`, with 30.6 µM; and `CC(C)(C)NC(=O)N1N=C(c2ccccc2)C1c1ccccc1` (centres undefined), with 56.5 µM; and `CC(C)(C)C(=O)OC(N)/C=C/c1ccccc1` (centres undefined), with more than 100 µM.
The molecule `O=C(CCc1cc(O)cc(O)c1)NCCc1cc(O)cc(O)c1` yielded a TGI of more than 100 µM.
In turn, `CC1(C)OC(=C(C#N)C#N)C(C#N)=C1/C=C/c1ccncc1` returned a TGI of 4.62 µM.
The molecule `C[C@@H]1CCC2[C@@H](C)[C@@H](OCCO[C@H]3OC4O[C@@]5(C)CCC6[C@H](C)CCC([C@H]3C)[C@@]46OO5)OC3O[C@@]4(C)CCC1[C@]32OO4` (some centres undefined) displayed a TGI of more than 95.8 µM.

The test system of a further experiment is HCT-15 colon. Nature of the experiment: NCI anticancer screen, dose series, 48 h.
Turning to `CC(CCC#N)(CCC#N)C(=O)CC(O)(C(F)(F)F)C(F)(F)F`, the TGI is 10.6 µM.
On the same count and under the same terms, then `COc1ccc(-c2c(C#N)c(O)n(NS(=O)(=O)c3ccc(C)cc3)c(=O)c2C#N)cc1`, with more than 100 µM.
Still for that read-out and setting: to `CC12CC(C#N)(C#N)C(C#N)(CO1)C(=N)O2` (centres undefined) belongs more than 100 µM; to `COc1ccc(OC)c(N2C(=O)CSC2c2cc(OC)c(OC)c(OC)c2)c1` (centres undefined), more than 100 µM; to `COc1ccc(CCN=C2OCc3ccccc32)cc1OC`, more than 100 µM.
Consider `Cc1ccc(NC(=S)NNC(=O)c2cc(-c3ccccc3)nc3ccccc23)cc1`, for which the TGI worked out at 25.9 µM.
`O=C(O)c1cccnc1` had a TGI of more than 100 µM.
